# How the values were obtained:
# [1] = target: T1, human muscarinic M1 receptor (Homo sapiens, UniProt P11229); test: Alphascreen Surefire phospho-ERK1/2 functional assay, M1; format: cell-based; conditions: for EC50 / M1 % Emax cf. ACh: CHO cells stably expressing human M1; for EC50: phospho-ERK1/2, read-out: pEC50 M1 (converted); for Emax: CHO, read-out: M1 % Emax cf. ACh, CHO cells stably expressing human M1; for Emax / M1 % Emax cf. ACh: Emax relative to ACh
# T1 construct: expressed in transfected cells
# T1 sequence (P11229 1-460): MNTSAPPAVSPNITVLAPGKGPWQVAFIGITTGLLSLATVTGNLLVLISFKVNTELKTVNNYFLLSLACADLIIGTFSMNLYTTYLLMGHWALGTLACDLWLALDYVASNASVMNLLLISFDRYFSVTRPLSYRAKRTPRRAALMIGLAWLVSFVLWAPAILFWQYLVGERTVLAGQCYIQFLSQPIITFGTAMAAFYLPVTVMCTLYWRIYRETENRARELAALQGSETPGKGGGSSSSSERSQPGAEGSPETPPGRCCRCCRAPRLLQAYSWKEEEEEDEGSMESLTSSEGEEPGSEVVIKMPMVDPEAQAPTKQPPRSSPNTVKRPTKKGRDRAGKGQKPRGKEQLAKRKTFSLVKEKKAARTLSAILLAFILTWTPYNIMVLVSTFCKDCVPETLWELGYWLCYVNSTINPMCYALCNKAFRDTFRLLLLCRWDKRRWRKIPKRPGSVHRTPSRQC
# Description: (§1) CHO cells stably expressing the human muscarinic M1, M2, M3 or M4 receptor were plated (25K/well) onto 96-well tissue culture plates in MEM-alpha+10% dialysed FBS. Once adhered, cells were serum-starved overnight. Agonist stimulation was performed by the addition of 5 μL agonist to the cells for 5 min (37° C.). Media was removed and 50 μL of lysis buffer added. After 15 min, a 4 μL sample was transferred to 384-well plate and 7 μL of detection mixture added. Plates were incubated for 2 h with gentle agitation in the dark and then read on a PHERAstar plate reader.
# (§2) pEC50 and Emax figures were calculated from the resulting data for each receptor subtype.
# [2] = target: T2, human muscarinic M4 receptor (Homo sapiens, UniProt P08173); test: Alphascreen Surefire phospho-ERK1/2 functional assay, M4; format: cell-based; conditions: for EC50: phospho-ERK1/2, read-out: pEC50 M4 (converted); for Emax: CHO, read-out: M4 % Emax cf. ACh, CHO cells stably expressing human M4
# T2 construct: expressed in transfected cells
# T2 sequence (P08173 1-479): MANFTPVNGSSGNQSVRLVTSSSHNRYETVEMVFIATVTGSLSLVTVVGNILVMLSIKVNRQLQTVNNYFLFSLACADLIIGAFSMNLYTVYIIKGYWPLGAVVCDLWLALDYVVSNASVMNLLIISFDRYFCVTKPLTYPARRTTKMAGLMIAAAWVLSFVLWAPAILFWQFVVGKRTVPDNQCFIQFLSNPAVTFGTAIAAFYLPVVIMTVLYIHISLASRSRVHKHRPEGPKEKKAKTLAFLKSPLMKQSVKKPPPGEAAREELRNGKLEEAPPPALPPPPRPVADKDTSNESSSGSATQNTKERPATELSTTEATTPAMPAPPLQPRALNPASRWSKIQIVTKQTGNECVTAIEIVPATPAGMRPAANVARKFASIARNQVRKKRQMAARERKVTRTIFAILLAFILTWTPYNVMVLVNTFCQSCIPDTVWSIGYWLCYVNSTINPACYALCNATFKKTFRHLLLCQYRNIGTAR
# Description: as §1, §2
# [3] = target: T3, human muscarinic M2 receptor (Homo sapiens, UniProt P08172); test: Alphascreen Surefire phospho-ERK1/2 functional assay, M2; conditions: for Emax: CHO, read-out: M2 % Emax cf. ACh, CHO cells stably expressing human M2; for EC50: pEC50 M2, CHO cells stably expressing human M2, phospho-ERK1/2
# T3 sequence (P08172 1-466): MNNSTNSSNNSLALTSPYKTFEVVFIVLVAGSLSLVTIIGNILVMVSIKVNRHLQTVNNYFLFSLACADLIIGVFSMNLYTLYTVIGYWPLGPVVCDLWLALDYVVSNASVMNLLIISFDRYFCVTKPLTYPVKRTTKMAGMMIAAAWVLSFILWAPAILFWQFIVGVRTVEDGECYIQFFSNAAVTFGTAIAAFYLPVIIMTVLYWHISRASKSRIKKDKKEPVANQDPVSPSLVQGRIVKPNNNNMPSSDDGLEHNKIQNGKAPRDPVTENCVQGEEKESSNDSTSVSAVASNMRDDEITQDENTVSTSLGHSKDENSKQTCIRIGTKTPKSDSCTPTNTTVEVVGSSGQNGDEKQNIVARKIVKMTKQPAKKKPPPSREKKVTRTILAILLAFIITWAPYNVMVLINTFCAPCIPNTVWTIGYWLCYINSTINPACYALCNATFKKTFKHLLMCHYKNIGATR
# Description: as §1, §2
# [4] = target: human muscarinic M3 receptor (Homo sapiens, UniProt P20309); test: Alphascreen Surefire phospho-ERK1/2 functional assay, M3; conditions: for Emax: CHO, read-out: M3 % Emax cf. ACh, CHO cells stably expressing human M3; for Emax / M3 % Emax cf. ACh: Emax relative to ACh; for M3 % Emax cf. ACh: CHO cells stably expressing human M3
# Description: as §1, §2
# [5] = CHO cells stably expressing human M4
# Sequence of human muscarinic M3 receptor (P20309 whole entry): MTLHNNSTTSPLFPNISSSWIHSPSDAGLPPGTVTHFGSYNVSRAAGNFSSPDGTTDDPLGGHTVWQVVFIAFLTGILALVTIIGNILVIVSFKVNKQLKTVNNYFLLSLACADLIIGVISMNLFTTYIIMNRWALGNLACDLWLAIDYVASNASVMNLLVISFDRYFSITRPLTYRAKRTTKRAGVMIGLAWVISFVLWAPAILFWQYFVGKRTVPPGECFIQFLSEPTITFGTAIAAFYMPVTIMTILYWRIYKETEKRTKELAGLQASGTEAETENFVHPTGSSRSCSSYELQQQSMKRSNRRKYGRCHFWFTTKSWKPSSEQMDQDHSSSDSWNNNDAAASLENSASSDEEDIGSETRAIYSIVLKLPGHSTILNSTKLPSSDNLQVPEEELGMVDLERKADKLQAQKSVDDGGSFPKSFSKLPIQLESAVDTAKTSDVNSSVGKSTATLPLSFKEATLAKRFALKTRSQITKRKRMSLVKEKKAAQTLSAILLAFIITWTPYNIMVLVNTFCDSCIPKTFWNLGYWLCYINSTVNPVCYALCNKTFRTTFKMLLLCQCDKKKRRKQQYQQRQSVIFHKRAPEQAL
Structure (SMILES),EC50 [1],Emax [1],"EC50 [2, 5]",Emax ([2]; Emax relative to ACh),Emax ([3]; Emax relative to ACh),EC50 [3],EC50 [4],Emax [4],M3 % Emax cf. ACh [4],M1 % Emax cf. ACh [1],"M2 % Emax cf. ACh ([3]; CHO cells stably expressing human M2, Emax relative to ACh)","M4 % Emax cf. ACh ([2]; CHO cells stably expressing human M4, Emax relative to ACh)"
"CCOC(=O)N1CC2(CC(N3CCC4(CC3)OC(=O)N(CC)C4(C)C)C2)C1 [Example 2-4, ethyl 6-(3-ethyl-4,4-dimethyl-2-oxo-1-oxa-3,8-diazaspiro[4.5]dec-8-yl)-2-azaspiro[3.3]heptane-2-carboxylate]",1000 nM,56%,501 nM,95%,14%,> 20000 nM,> 20000 nM,24%,,,,
"CCOC(=O)N1CCC2(CC(N3CCC4(CC3)OC(=O)N(CC3CC3)C4(C)C)C2)C1 (single isomer, unassigned) [4-39 Isomer 2]",794 nM,56%,63.1 nM,88%,87%,> 20000 nM,> 20000 nM,8%,,,,
"CCOC(=O)N1CCC2(CC(N3CCC4(CC3)OC(=O)NC4C)C2)C1 (single isomer, unassigned) [4-11 Isomer 2]",158 nM,114%,79.4 nM,102%,7%,> 20000 nM,> 20000 nM,7%,,,,
"CCCN1C(=O)OC2(CCN(C3CC4(CCN(C(=O)OC)C4)C3)CC2)C1(C)C (single isomer, unassigned) [4-36 Isomer 2]",12600 nM,35%,79.4 nM,106%,52%,> 20000 nM,> 20000 nM,1%,,,,
"COC(=O)N1CCC2(CC(N3CCC4(CC3)CNC(=O)C4)C2)C1 (single isomer, unassigned) [3-1 Isomer 2]",79.4 nM,87%,100 nM,50%,14%,> 20000 nM,> 20000 nM,20%,,,,
"COC(=O)N1CCC2(CC(N3CCC4(CC3)CNC(=O)O4)C2)C1 (single isomer, unassigned) [4-1 Isomer 2]",126 nM,104%,126 nM,86%,18%,> 20000 nM,> 20000 nM,11%,,,,
"CCCN1NC(=O)CC12CCN(C1CC3(CCN(C(=O)OCC)C3)C1)CC2 (single isomer, unassigned) [6-4 Isomer 2]",31.6 nM,89%,3.98 nM,100%,20%,> 20000 nM,> 20000 nM,26%,,,,
CCOC(=O)N1CC2(CCC(N3CCC4(CC3)OC(=O)N(CC)C4(C)C)C2)C1 (racemic) [8-4 racemic],200 nM,63%,7.94 nM,91%,4%,> 20000 nM,> 20000 nM,1%,,,,
CCOC(=O)N1CCC2(CC(N3CCC4(CC3)OC(=O)N(OC)C4CC)C2)C1 (mixture of isomers) [4-48 mixture of diastereomers],501 nM,56%,100 nM,77%,3%,> 20000 nM,> 20000 nM,11%,,,,
CCOC(=O)N1CC2(CCC(N3CCC4(CC3)CNC(=O)C4)C2)C1 (racemic) [7-1 racemic],5.01 nM,26%,> 20000 nM,14%,0%,> 20000 nM,> 20000 nM,4%,,,,
"CCOC(=O)N1CCC2(CC(N3CCC4(CC3)OC(=O)N(CCF)C4(C)C)C2)C1 (single isomer, unassigned) [4-40 Isomer 2]",7940 nM,37%,39.8 nM,109%,4%,> 20000 nM,> 20000 nM,6%,,,,
"CCOC(=O)N1CCC2(CC(N3CCC4(CC3)OC(=O)N(CCOC)C4(C)C)C2)C1 (single isomer, unassigned) [4-41 Isomer 2]",> 20000 nM,8%,100 nM,86%,5%,> 20000 nM,> 20000 nM,42%,,,,
"CCOC(=O)N1CC2(CC(N3CCC4(CC3)OC(=O)NC4CC)C2)C1 (single isomer, unassigned) [2-1 Isomer 2]",158 nM,106%,126 nM,108%,15%,> 20000 nM,> 20000 nM,,(4) %,,,
"CCOC(=O)N1CCC2(CC(N3CCC4(CC3)CNC(=O)C4)C2)C1 (single isomer, unassigned) [3-2 Isomer 2]",15.8 nM,87%,20 nM,50%,3%,> 20000 nM,> 20000 nM,2%,,,,
"CCOC(=O)N1CCC2(CC(N3CCC4(CC3)CC(=O)NC4C)C2)C1 (single isomer, unassigned) [3-3 Isomer 2]",158 nM,97%,200 nM,81%,2%,> 20000 nM,> 20000 nM,7%,,,,
"CCOC(=O)N1CCC2(CC(N3CCC4(CC3)CNC(=O)N4)C2)C1 (single isomer, unassigned) [5-2 Isomer 2]",126 nM,92%,316 nM,50%,143%,> 20000 nM,> 20000 nM,5%,,,,
CCOC(=O)N1CC2(CCC(N3CCC4(CC3)OC(=O)N(CC)C4CC)C2)C1 (mixture of isomers) [8-2 mixture of diastereomers],200 nM,65%,10 nM,30%,1%,> 20000 nM,> 20000 nM,1%,,,,
"CCOC(=O)N1CCC2(CC(N3CCC4(CC3)OC(=O)N(CC(C)C)C4(C)C)C2)C1 (single isomer, unassigned) [4-38 Isomer 1]",1000 nM,,63.1 nM,97%,,> 20000 nM,> 20000 nM,,(3) %,(72) %,(7) %,
"CCCN1C(=O)OC2(CCN(C3CC4(CCN(C(=O)OCC)C4)C3)CC2)C1(C)C (single isomer, unassigned) [4-37 Isomer 1]",398 nM,,5.01 nM,,3%,> 20000 nM,> 20000 nM,7%,,(84) %,,(138) %
"CCOC(=O)N1CCC2(CC(N3CCC4(CC3)OC(=O)N(CC(C)C)C4CC)C2)C1 (single isomer, unassigned) [4-24 Isomer 2 (racemic)]",501 nM,84%,10 nM,84%,53%,> 20000 nM,> 20000 nM,2%,,,,
